The target of experiment [1] is T1, translocase MraY (phospho-MurNAc-pentapeptide translocase) (Escherichia coli, UniProt P0A6W3).
T1 construct: membranes containing overexpressed E. coli MraY
T1 sequence (P0A6W3 1-360): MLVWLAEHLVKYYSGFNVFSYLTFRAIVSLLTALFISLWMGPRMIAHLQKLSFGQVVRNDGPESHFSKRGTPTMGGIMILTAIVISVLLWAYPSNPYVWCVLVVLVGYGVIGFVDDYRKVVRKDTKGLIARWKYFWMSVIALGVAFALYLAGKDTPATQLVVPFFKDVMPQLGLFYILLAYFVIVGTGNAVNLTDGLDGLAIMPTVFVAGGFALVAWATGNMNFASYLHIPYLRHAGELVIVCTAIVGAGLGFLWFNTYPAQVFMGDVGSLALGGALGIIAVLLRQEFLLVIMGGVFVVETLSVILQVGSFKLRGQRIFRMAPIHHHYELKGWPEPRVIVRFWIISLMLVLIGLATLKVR
Briefly: biochemical. More on the design: continuous fluorescence enhancement assay, dansyl-UDPMurNAc-pentapeptide to dansyl-lipid I, membranes overexpressing E. coli MraY. Here is the method:
UDP-MurNAc-L-Ala-γ-D-Glu-L-Lys-D-Ala-D-Ala was prepared enzymatically using the methods described by Lloyd et al.,[32] and was converted to UDP-MurNAc-L-Ala-γ-D-Glu-L-Lys(Nε-dansyl)-D-Ala-D-Ala using the method of Brandish et al.[5] The MraY-catalysed reaction was monitored on a HIDEX Sense microplate reader 425–301 (λex 340 nm, λem 530 nm). To monitor the formation of dansyl-lipid I, membranes containing overexpressed E. coli MraY (15 μL of 0.6 mg mL^−1 stock) were incubated with UDP-MurNAc-L-Ala-γ-D-Glu-L-Lys(Nε-dansyl)-D-Ala-D-Ala (25 μM), undecaprenyl phosphate (30 μM, from stock solution in […] Tris buffer pH 7.5 containing 2 mM β-mercaptoethanol, 1 mM MgCl2, 20% glycerol, 0.5% Triton X-100), in 100 mM Tris buffer pH 7.5 containing 25 mM MgCl2, in a total volume of 100 μL. Test compounds were assayed at 200 μM final concentration, in triplicate assays, and compound 6d was assayed at 25–200 μM concentration in triplicate assays. Tunicamycin (20 μM) was used as a positive control for enzyme inhibition assays. Membranes containing overexpressed E. coli R288L mutant MraY were prepared as described in Rodolis et al.[16] Radiochemical assays were carried out using membranes containing overexpressed E. coli MraY as described in Mihalyi et al.[19] The set of analogues were assayed against particulate E. coli MraY from overexpressed membranes, using a fluorescence enhancement assay with fluorescent substrate UDPMurNAc-L-Ala-γ-D-Glu-L-Lys(ε-N-dansyl)-D-Ala-D-Ala, used previously to assay MraY.[5,16,17]

The next experiment deals with T2, Escherichia coli K12.
T2 construct: K12
Briefly: microbe, parasite or virus in culture. Particulars: MIC50, 50% growth reduction. Set-up: broth microdilution growth inhibition, OD595, overnight; MIC50 = concentration reducing growth by 50%. Here is the method: (§1) P. fluorescens Pf-5, E. coli (TOP10 or C43), B. subtilis (W23) or M. flavus colonies were isolated from an agar plate and inoculated in 5 mL of Luria-Bertani broth overnight at 37 °C. E. coli C43/pET28a-mraY was grown in Luria-Bertani media containing 50 μg mL^−1 kanamycin. […] Serial dilutions of 125, 62.5, 31.25, 15.63, 7.82, 3.90, 1.95 and 0.97 μg mL^−1 test compound were prepared. 10 μL of water, MeOH and DMSO were added to separate wells to serve as a growth control. Each test condition was tested in triplicate. The 96-well plate was covered and incubated overnight at 30 or 37 °C. Optical density (OD595) was measured using a HIDEX Sense microplate reader 425–301. The inhibitor concentration which reduced the growth by 50% was measured as the MIC50 of the compound. The set of analogues were tested for antimicrobial activity against laboratory strains of E. coli K12, B. subtilis W23, and Pseudomonas fluorescens Pf-5.

The test system of experiment [2] is T3, Pseudomonas fluorescens Pf-5.
T3 construct: Pf-5
As to the kind of experiment: microbe, parasite or virus in culture. More on the design: broth microdilution growth inhibition, OD595, overnight; MIC50 = concentration reducing growth by 50%. The settings on record: PF5, MIC50, 50% growth reduction. Here is the method: as §1

Another experiment concerns T4, Bacillus subtilis W23.
T4 construct: W23
Briefly: microbe, parasite or virus in culture. More on the design: broth microdilution growth inhibition, OD595, overnight; MIC50 = concentration reducing growth by 50%. The settings on record: MIC50, 50% growth reduction. The method, then: as §1

Experiment [3] has as its target T5, translocase MraY (phospho-MurNAc-pentapeptide translocase) (Escherichia coli, UniProt P0A6W3).
T5 construct: membranes containing overexpressed E. coli MraY
As to the kind of experiment: continuous fluorescence assay with dansyl-UDPMurNAc-pentapeptide, overexpressed membranes. It is filed as biochemical. From the text: continuous fluorescence assay with dansyl-UDPMurNAc-pentapeptide, overexpressed membranes on translocase MraY (phospho-MurNAc-pentapeptide translocase) | highest enzyme inhibition shown by compound 6d.

In experiment [4] the target is T5, translocase MraY (phospho-MurNAc-pentapeptide translocase). As to the kind of experiment: continuous fluorescence assay, % inhibition at […], overexpressed membranes. The class given is biochemical.

The structures appear in SMILES notation. In brackets after ≈: the same amount, converted by molar mass. Where only a bound is given, the exact number is not on record here.

The inhibition is the share of the control response that was lost under treatment. In the case of `CCCCCCCCn1c(=O)nc(NCCN)n(Cc2ccccc2)c1=O` [6a], in experiment [1] (continuous fluorescence assay), the inhibition at 200 µM came to 36%. In addition, the values for the MIC50 (with Escherichia coli K12; in experiment [2]; against Bacillus subtilis W23) were 16 µg/mL (≈ 42.8 µM), 64 µg/mL (≈ 171 µM) and 8 µg/mL (≈ 21.4 µM), respectively.
The corresponding values for `CCCCCCCCn1c(=O)nc(NCCN)n(Cc2ccc(OC)cc2)c1=O` [6b] are 50%, 16 µg/mL (≈ 39.7 µM), 32 µg/mL (≈ 79.3 µM) and 8 µg/mL (≈ 19.8 µM).
The corresponding values for `CCCCCCCCn1c(=O)nc(NCCN)n(Cc2cccc(OC)c2)c1=O` [6c] are 42%, 64 µg/mL (≈ 159 µM), over 256 µg/mL and 32 µg/mL (≈ 79.3 µM).
The term IC50 denotes the point on the concentration scale where inhibition reaches its midpoint. For `CCCCCCCCn1c(=O)nc(NCCN)n(Cc2ccccc2OC)c1=O` [6d], in experiment [1] (read-out: % MraY inhibition @200 μM), the inhibition at 200 µM came to 80%. Also, 48 µM corresponded to half-maximal inhibition in experiment [3] (IC50). In addition, the MIC50 with Escherichia coli K12 is 64 µg/mL (≈ 159 µM); in experiment [2], over 256 µg/mL; in the experiment on Bacillus subtilis W23 it was 32 µg/mL (≈ 79.3 µM).
On to `CCCCCCCCn1c(=O)nc(NCCN)n(Cc2ccc(F)cc2)c1=O` [6e], for which the inhibition at 200 µM in experiment [1] (continuous fluorescence assay) came to 35%. In addition, the values for the MIC50 (against Escherichia coli K12; in experiment [2]; in the experiment on Bacillus subtilis W23) were 64 µg/mL (≈ 163 µM), 128 µg/mL (≈ 327 µM) and 32 µg/mL (≈ 81.7 µM), respectively.
Regarding `CCCCCCCCn1c(=O)nc(NCCN)n(Cc2ccc(Cl)cc2)c1=O` [6f], the inhibition at 200 µM in experiment [1] (continuous fluorescence assay) was 15%. The MIC50 in the experiment with Escherichia coli K12 stood at 8 µg/mL (≈ 19.6 µM); in experiment [2], 64 µg/mL (≈ 157 µM); against Bacillus subtilis W23, 4 µg/mL (≈ 9.81 µM).
As for `CCCCCCCCn1c(=O)nc(NCCN)n(Cc2ccc(Br)cc2)c1=O` [6g], the MIC50 worked out at 16 µg/mL (≈ 35.4 µM) in the experiment with Escherichia coli K12, 64 µg/mL (≈ 141 µM) in experiment [2] and 16 µg/mL (≈ 35.4 µM) with Bacillus subtilis W23. Also, in experiment [4], the inhibition at 200 µM amounted to 68%.
Turning to `CCCCCCCCn1c(=O)nc(NCCN)n(Cc2ccc([N+](=O)[O-])cc2)c1=O` [6h], the MIC50 was 64 µg/mL (≈ 153 µM) in the experiment with Escherichia coli K12, over 256 µg/mL in experiment [2] and 32 µg/mL (≈ 76.5 µM) against Bacillus subtilis W23. This molecule also gave an inhibition at 200 µM in experiment [4] of 63%.
The corresponding values for `CCCCCCCCn1c(=O)nc(NCCN)n(Cc2ccc(C(F)(F)F)cc2)c1=O` [6j] are 64 µg/mL (≈ 145 µM), over 256 µg/mL, 32 µg/mL (≈ 72.5 µM) and 59%.
On to `CCCCCCCCn1c(=O)nc(NCCNC(=N)N)n(Cc2ccccc2)c1=O` [7a], for which the inhibition at 200 µM in experiment [1] (continuous fluorescence assay) came out at 41%. The MIC50 against Escherichia coli K12 is 16 µg/mL (≈ 38.5 µM); in experiment [2], 32 µg/mL (≈ 77 µM); in the experiment with Bacillus subtilis W23, 8 µg/mL (≈ 19.3 µM).
The corresponding values for `CCCCCCCCn1c(=O)nc(NCCNC(=N)N)n(Cc2ccc(OC)cc2)c1=O` [7b] are 48%, 16 µg/mL (≈ 35.9 µM), 32 µg/mL (≈ 71.8 µM) and 2 µg/mL (≈ 4.49 µM).
Turning to `CCCCCCCCn1c(=O)nc(NCCNC(=N)N)n(Cc2cccc(OC)c2)c1=O` [7c], the MIC50 amounted to 16 µg/mL (≈ 35.9 µM) against Escherichia coli K12, 32 µg/mL (≈ 71.8 µM) in experiment [2] and 4 µg/mL (≈ 8.98 µM) in the experiment with Bacillus subtilis W23. In addition, 200 µM produced 57% inhibition in experiment [4].
The corresponding values for `CCCCCCCCn1c(=O)nc(NCCNC(=N)N)n(Cc2ccccc2OC)c1=O` [7d] are 16 µg/mL (≈ 35.9 µM), over 256 µg/mL, 4 µg/mL (≈ 8.98 µM) and 57%.
The corresponding values for `CCCCCCCCn1c(=O)nc(NCCNC(=N)N)n(Cc2ccc(F)cc2)c1=O` [7e] are 16 µg/mL (≈ 36.9 µM), 32 µg/mL (≈ 73.8 µM), 4 µg/mL (≈ 9.23 µM) and 63%.
Turning to `CCCCCCCCn1c(=O)nc(NCCNC(=N)N)n(Cc2ccc(Cl)cc2)c1=O` [7f], the inhibition at 200 µM in experiment [1] (continuous fluorescence assay) worked out at 42%. The MIC50 against Escherichia coli K12 is 8 µg/mL (≈ 17.8 µM); in experiment [2] it was 32 µg/mL (≈ 71.1 µM); with Bacillus subtilis W23, 8 µg/mL (≈ 17.8 µM).
In the case of `CCCCCCCCn1c(=O)nc(NCCNC(=N)N)n(Cc2ccc(Br)cc2)c1=O` [7g], the MIC50 in the experiment on Escherichia coli K12 was determined as 16 µg/mL (≈ 32.4 µM); in experiment [2], 256 µg/mL (≈ 518 µM); against Bacillus subtilis W23, 4 µg/mL (≈ 8.09 µM). The molecule further registered an inhibition at 200 µM in experiment [4] of 51%.
The corresponding values for `CCCCCCCCn1c(=O)nc(NCCNC(=N)N)n(Cc2ccc([N+](=O)[O-])cc2)c1=O` [7h] are 64 µg/mL (≈ 139 µM), 256 µg/mL (≈ 556 µM), 32 µg/mL (≈ 69.5 µM) and 70%.
Regarding `CCCCCCCCn1c(=O)nc(NCCNC(=N)N)n(Cc2ccc(C(F)(F)F)cc2)c1=O` [7j], in experiment [1] (continuous fluorescence assay), the inhibition at 200 µM came to 43%. The figures for the MIC50 (with Escherichia coli K12; in experiment [2]; against Bacillus subtilis W23) were 4 µg/mL (≈ 8.27 µM), 16 µg/mL (≈ 33.1 µM) and 1 µg/mL (≈ 2.07 µM), respectively.
Take `CCCCCCCCn1c(=O)nc(NCCO)n(Cc2ccccc2)c1=O` [compound 11]: the inhibition at 200 µM in experiment [1] (continuous fluorescence assay) is 39%. The MIC50 in the experiment with Escherichia coli K12 and against Bacillus subtilis W23 was over 256 µg/mL each time.
With `CCCCCCCCn1c(=O)nc(NCCNC(N)=O)n(Cc2ccccc2)c1=O` [compound 12], the inhibition at 200 µM in experiment [1] (continuous fluorescence assay) was 39%. Moreover, the MIC50 was found to be 64 µg/mL (≈ 154 µM) in the experiment on Escherichia coli K12 and 128 µg/mL (≈ 307 µM) against Bacillus subtilis W23.
On to `CCCCCCCCn1c(=O)nc(NCCN)n(C(CCc2ccccc2)c2ccccc2)c1=O` (stereo not shown) [compound 13, 13], for which the figures for the MIC50 in the experiment on Escherichia coli K12 and against Bacillus subtilis W23 were 256 µg/mL (≈ 536 µM) and 128 µg/mL (≈ 268 µM), respectively. In experiment [4], at 200 µM the inhibition was 64%.

The values above are taken from PMC11812184, “Antimicrobial triazinedione inhibitors of the translocase MraY–protein E interaction site: synergistic effects with bacitracin imply a new mechanism of action” (RSC Medicinal Chemistry, 2025).
